Measurements reported in patent publication US7601716B2, “Pyridopyrazines and derivatives thereof as ALK and c-Met inhibitors” (Cephalon, Inc., priority 2006, dated 2009).
pIC50: −log10 of the molar value.

Assays:
[1] = target: T1, c-Met (cytoplasmic domain) (Homo sapiens, UniProt P08581); assay: c-Met Kinase Assay (ELISA/TRF, PLC-γ substrate); assay type: biochemical; conditions: 3 μM ATP (Km level); read-out: c-Met Kinase Inhibition (IC50)
T1 construct: Reactions were initiated with 30 ng/mL c-Met (cytoplasmic domain, Invitrogen Corporation #PV3143); purchased Invitrogen Corporation PV3143
Procedure, shortened: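 c-Met cytoplasmic domain (30 ng/mL) phosphorylates plate-coated GST–PLC-γ for 15 min at 37 °C. Phosphotyrosine detected with Eu-labeled PT66 antibody by time-resolved fluorescence. IC50 from variable-slope sigmoidal fit of % inhibition vs log concentration.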

NPM-ALK = target: T2, NPM-ALK (Homo sapiens, UniProt Q9UM73); assay: ALK Cellular Assay (phospho-NPM-ALK immunoblot / ALK tyrosine phosphorylation ELISA); assay type: cell-based; conditions: for inhibition at 1 µM: NPM-ALK, 1 μM compound, read-out: ALK Cellular Activity Inhibition Score at 1 μM
T2 construct: a fusion protein consisting of nucleophosmin (NMP) and the intracellular domain of ALK; the other entry of the earlier key: NPM1 (P06748, Nucleophosmin)
Description: Immunoblotting of phospho-NPM-ALK and total NPM-ALK from cell lysates was carried out according to the protocols provided by the antibody suppliers. In brief, after treatment of Example compounds, cells were lysed in Frak lysis buffer [10 mM Tris, pH 7.5, 1% Triton X-100, 50 mM sodium chloride, 20 mM sodium fluoride, 2 mM sodium pyrophosphate, 0.1% BSA, plus freshly prepared 1 mM activated sodium vanadate, 1 mM dithiothreitol (#165680050, ARCOS Organics, Geel, Belgium), and 1 mM PMSF (#837091, Boehringer Mannheim Biochemicals, Indianapolis, Ind.), protease inhibitors cocktail III (#539134-1Set, Calbiochem, 1:100 dilution)]. After brief sonication, the lysates were cleared by centrifugation, mixed with sample buffer and subjected to SDS-PAGE. Following transfer to membranes, the membranes were blotted with either rabbit phospho-NPM-ALK(Y664) (Cat^#3341) or ALK antibody (Cat^#3342) from Cell Signaling Technology (Beverly, Mass.), and then the HRP-conjugated goat anti-rabbit antibodies (Santa Cruz, Calif.) after washed in TBS/0.2% Tween-20. The protein bands were visualized with ECL Western Blotting detection reagents (RPN2106, Amersham Biosciences, Buckinghamshire, UK) and quantitated with gel-pro analyzer 3.1 software.
To measure ALK tyrosine phosphorylation in cells with an ELISA assay, fluoronunc plates (Cat^#437796, Nalge Nunc, Rochester, N.Y.) were pre-coated with goat anti-mouse IgG, and incubated with the capture mouse ALK antibody (Cat^#35-4300, Zymed, Seattle, Wash.) diluted 1:1000 in Superblock (Pierce, Rockford, Ill.). Following blocking, cell lysates were added to plates and incubated overnight at 4° C. Plates were incubated with the detecting antibody, anti-phospho-ALK (Y664) (Cell Signaling Technology), diluted at 1:2000, followed by incubation with goat anti-rabbit-IgG alkaline phosphatase to amplify the detection. Wells were exposed to the fluorogenic substrate 4-MeUP (#3368-04-5, Calbiochem) and the signal quantified using a CytoFluor® (series 4000) Fluorescence Multi-Well Plate Reader (Applied Biosystems, Foster City, Calif.).

[2] = target: baculovirus-expressed ALK (Homo sapiens, UniProt Q9UM73); assay: ALK Kinase Assay (ELISA/TRF, PLC-γ substrate); assay type: biochemical; conditions: read-out: ALK Kinase Inhibition (IC50); also: 1 µM ATP (Km level)
Procedure, shortened: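 An ELISA adapted from a trkA format was used: wells carried GST-fused PLC-γ substrate, and enzyme addition (30 ng/ml ALK) started a 15-minute reaction at 37° C.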

T2 sequence (Q9UM73 with tags, fused parts or gaps): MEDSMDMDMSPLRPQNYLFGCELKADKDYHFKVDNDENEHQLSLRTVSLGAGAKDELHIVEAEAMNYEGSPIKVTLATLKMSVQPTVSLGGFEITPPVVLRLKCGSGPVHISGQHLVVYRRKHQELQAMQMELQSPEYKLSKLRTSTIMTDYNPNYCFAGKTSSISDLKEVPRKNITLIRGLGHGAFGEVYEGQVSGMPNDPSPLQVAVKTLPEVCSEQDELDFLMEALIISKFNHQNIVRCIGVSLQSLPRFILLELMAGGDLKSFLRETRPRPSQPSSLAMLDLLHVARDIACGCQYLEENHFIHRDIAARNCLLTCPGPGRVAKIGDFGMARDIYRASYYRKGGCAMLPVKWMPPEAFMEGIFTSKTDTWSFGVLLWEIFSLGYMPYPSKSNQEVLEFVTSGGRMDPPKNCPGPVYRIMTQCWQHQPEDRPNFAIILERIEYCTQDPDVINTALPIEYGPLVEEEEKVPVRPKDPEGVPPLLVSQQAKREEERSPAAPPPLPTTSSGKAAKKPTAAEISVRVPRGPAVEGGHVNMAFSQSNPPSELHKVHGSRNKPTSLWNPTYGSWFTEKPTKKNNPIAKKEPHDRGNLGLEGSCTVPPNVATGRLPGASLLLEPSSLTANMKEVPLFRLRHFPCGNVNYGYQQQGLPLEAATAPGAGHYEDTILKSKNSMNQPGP
Sequence of baculovirus-expressed ALK (Q9UM73 19-1620): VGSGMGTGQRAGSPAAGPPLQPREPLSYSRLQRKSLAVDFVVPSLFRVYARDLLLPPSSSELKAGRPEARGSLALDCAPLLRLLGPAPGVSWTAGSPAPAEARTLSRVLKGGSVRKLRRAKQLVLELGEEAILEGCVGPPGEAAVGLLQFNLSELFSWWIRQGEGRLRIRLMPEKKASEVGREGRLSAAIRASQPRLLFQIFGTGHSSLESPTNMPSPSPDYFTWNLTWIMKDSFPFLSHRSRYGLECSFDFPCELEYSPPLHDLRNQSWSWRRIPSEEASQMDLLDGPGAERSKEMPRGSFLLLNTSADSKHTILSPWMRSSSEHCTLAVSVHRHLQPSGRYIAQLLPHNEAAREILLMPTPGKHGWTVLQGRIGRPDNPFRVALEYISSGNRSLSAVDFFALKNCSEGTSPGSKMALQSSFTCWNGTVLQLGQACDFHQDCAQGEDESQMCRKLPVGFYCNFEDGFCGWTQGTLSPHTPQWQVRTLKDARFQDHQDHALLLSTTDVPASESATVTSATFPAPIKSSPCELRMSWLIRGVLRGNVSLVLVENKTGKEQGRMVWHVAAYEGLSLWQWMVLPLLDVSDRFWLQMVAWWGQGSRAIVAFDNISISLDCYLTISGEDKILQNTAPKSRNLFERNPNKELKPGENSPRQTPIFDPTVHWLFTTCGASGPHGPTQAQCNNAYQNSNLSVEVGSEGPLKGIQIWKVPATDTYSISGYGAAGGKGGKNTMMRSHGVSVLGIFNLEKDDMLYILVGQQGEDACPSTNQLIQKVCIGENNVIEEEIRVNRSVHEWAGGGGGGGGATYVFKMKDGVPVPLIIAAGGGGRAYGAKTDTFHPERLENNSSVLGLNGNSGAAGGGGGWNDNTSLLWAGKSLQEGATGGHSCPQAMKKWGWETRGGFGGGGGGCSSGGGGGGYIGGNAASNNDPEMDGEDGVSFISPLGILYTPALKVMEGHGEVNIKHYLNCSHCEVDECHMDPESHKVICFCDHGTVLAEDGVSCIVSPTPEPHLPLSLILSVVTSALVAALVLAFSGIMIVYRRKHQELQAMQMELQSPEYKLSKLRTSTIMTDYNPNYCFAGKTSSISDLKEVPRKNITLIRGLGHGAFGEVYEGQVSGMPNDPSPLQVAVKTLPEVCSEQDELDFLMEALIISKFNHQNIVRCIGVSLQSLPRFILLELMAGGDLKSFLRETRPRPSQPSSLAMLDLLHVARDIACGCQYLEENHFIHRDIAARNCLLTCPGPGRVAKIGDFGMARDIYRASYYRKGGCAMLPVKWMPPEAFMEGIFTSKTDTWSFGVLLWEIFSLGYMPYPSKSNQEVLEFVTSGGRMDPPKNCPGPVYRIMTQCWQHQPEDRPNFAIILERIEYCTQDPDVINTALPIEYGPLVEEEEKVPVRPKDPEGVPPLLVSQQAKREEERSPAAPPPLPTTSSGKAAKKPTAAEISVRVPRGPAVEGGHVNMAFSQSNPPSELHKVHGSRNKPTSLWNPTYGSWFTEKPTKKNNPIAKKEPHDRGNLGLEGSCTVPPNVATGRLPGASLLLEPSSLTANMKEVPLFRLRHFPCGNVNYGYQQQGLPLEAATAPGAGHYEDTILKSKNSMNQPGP
T1 sequence (P08581 956-1390 limits assumed): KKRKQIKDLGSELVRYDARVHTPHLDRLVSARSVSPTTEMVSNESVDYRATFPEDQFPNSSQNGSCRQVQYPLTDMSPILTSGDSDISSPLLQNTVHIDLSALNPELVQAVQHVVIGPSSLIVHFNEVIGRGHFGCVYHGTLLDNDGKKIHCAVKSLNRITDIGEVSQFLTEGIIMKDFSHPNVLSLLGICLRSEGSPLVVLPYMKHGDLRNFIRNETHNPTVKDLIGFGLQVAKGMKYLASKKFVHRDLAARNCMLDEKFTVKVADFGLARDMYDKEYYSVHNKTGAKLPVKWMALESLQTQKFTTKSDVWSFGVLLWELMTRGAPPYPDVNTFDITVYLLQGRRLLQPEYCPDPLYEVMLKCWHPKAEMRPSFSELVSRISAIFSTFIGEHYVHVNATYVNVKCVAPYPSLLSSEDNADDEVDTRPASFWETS

Row | Compound | melting point | pIC50 [1] | inhibition at 1 µM (NPM-ALK) | pIC50 [2] | pIC50 (NPM-ALK)
1 | O=C1CNc2ncc(-c3ccc(C(=O)N4CCC[C@H]4CN4CCCC4)cc3)cc2N1Cc1cc(F)ccc1F [Example 57, 1-(2,5-Difluorobenzyl)-7-[4-((S)-2-[(pyrrolidin-1-yl)methyl]pyrrolidine-1-carbonyl)phenyl]-3,4-dihydro-1H-pyrido[2,3-b]pyrazin-2-one] | 125 °C | 6.00 to 7.00 | 0 to 25% | 6.00 to 7.00 | –
2 | O=C(O)c1ccc(-c2cnc3c(c2)N(Cc2c(F)ccc(F)c2Cl)C(=O)CN3)cc1 [Example 6, 4-[1-(2-Chloro-3,6-difluorobenzyl)-2-oxo-1,2,3,4-tetrahydropyrido[2,3-b]pyrazin-7-yl]benzoic acid] | > 300 °C | 4.00 to 5.00 | 0 to 25% | 6.00 to 7.00 | –
3 | FC(F)(F)c1ccc(Cl)cc1CN1CCNc2ncc(-c3cn[nH]c3)cc21 [Example 200, 1-[5-Chloro-2-(trifluoromethyl)benzyl]-7-(1H-pyrazol-4-yl)-1,2,3,4-tetrahydro-pyrido[2,3-b]pyrazine] | 271 °C | 5.00 to 6.00 | – | 6.00 to 7.00 | 6.00 to 6.12
4 | O=C1CNc2ncc(-c3ccc(C(=O)N4CCC[C@H]4CN4CCCC4)cc3)cc2N1Cc1c(Cl)cccc1Cl [Example 141, S-1-(2,6-Dichlorobenzyl)-7-[4-((2-pyrrolidin-1-yl)methylpyrrolidine-1-carbonyl)phenyl]-3,4-dihydro-1H-pyrido[2,3-b]pyrazin-2-one] | 188 °C | 5.00 to 6.00 | 51 to 75% | 6.00 to 7.00 | –
5 | O=C(c1ccc(-c2cnc3c(c2)N(Cc2cc(F)ccc2F)CCN3)cc1)N1CCC[C@H]1CN1CCCC1 [Example 65, {4-[1-(2,5-Difluorobenzyl)-1,2,3,4-tetrahydropyrido[2,3-b]pyrazin-7-yl]phenyl}-((S)-2-((pyrrolidin-1-yl)methyl)pyrrolidin-1-yl)methanone] | 143 to 144 °C | 5.00 to 6.00 | – | > 7.00 | ≥ 6.60
6 | CN1CCN(c2ncc(-c3cnc4c(c3)N(Cc3c(F)ccc(F)c3Cl)CCN4)cn2)CC1 [Example 106, 1-(2-Chloro-3,6-difluorobenzyl)-7-[2-(4-methylpiperazin-1-yl)-pyrimidin-5-yl]-1,2,3,4-tetrahydropyrido[2,3-b]pyrazine] | 194 to 195 °C | 5.00 to 6.00 | – | > 7.00 | ≥ 6.60
7 | FC(F)(F)c1ccc(Cl)cc1CN1CCNc2ncc(-c3ccnc(N4CCNCC4)c3)cc21 [Example 198, 1-[5-Chloro-2-(trifluoromethyl)benzyl]-7-(2-piperazin-1-yl-pyridin-4-yl)-1,2,3,4-tetrahydro-pyrido[2,3-b]pyrazine] | 189 °C | 6.00 to 7.00 | – | > 7.00 | ≥ 6.60
8 | CN1CCN(C(=O)c2ccc(-c3cnc4c(c3)N(Cc3cc(Cl)ccc3Cl)CCN4)cc2)CC1 [Example 132, {4-[1-(2,5-Dichlorobenzyl)-1,2,3,4-tetrahydropyrido[2,3-b]pyrazin-7-yl]phenyl}-(4-methylpiperazin-1-yl)methanone] | – | 5.00 to 6.00 | – | > 7.00 | 6.30 to 6.60
9 | Fc1ccc(F)c(CN2CCNc3ncc(-c4ccc(N5CCOCC5)nc4)cc32)c1Cl [Example 105, 1-(2-Chloro-3,6-difluorobenzyl)-7-(6-morpholin-4-yl-pyridin-3-yl)-1,2,3,4-tetrahydropyrido[2,3-b]pyrazine] | – | 5.00 to 6.00 | – | > 7.00 | 6.00 to 6.12
10 | O=S(=O)(CCN1CCCC1)Nc1ccc(-c2cnc3c(c2)N(Cc2cc(F)ccc2F)CCN3)cc1 [Example 51, 2-Pyrrolidin-1-yl-ethanesulfonic acid{4-[1-(2,5-difluorobenzyl)-1,2,3,4-tetrahydropyrido[2,3-b]pyrazin-7-yl]phenyl}-amide] | – | 4.00 to 5.00 | 26 to 50% | 6.00 to 7.00 | –
